The source of these data is patent publication US20050154066A1, “Antiaging composition” (KANEKA CORPORATION, priority 2004, published 2005).

Each structure is given as a SMILES string.

One data set deals with rats. As to conditions: administered every day for 52 weeks at 1,200 mg/kg/day (Williams et al. 1999); cited from earlier work.
Data set [1] deals with Aging-accelerated model mice (SAMP1). The experiment in a line: Aging preventing (retarding) effect in aging-accelerated model mice, aging degree score. It counts as in vivo. As to conditions: SAMP1 female mice, about 150 to 250 mg/kg/day; for aging degree score (increase): feed containing 0.2% test substance, versus control feed, FIG. 1 / FIG. 2. An excerpt:
In evaluating such antiaging effects, for example, aging-accelerated model mice, can be used as an in vivo evaluation model. This mouse is a model mouse discovered and bred at Kyoto University, Japan, which develops the state of aging early and markedly.
Aging-accelerated model mice (SAMP1, 3-week-old females) were allowed free access to a feed (CE-2, product of CLEA Japan, Inc.) containing 0.2% reduced coenzyme Q10 (containing about 1% of oxidized coenzyme Q10) obtained in Production Example 1, and the aging degree of each mouse was quantified with time according to the aging degree score mentioned below. The dose of reduced coenzyme Q10 as estimated from the feed consumption and animal weight corresponded to about 150 to 250 mg/kg/day. A control group was given the feed alone (CE-2, product of CLEA Japan, Inc.).
The aging-accelerated model mice used were model mice discovered and bred at Kyoto University which develop the state of aging early and markedly. These mice show the state of aging quite similar to that of humans, and are useful model animals for in vivo testing for antiaging effects. The aging degree scoring system employed was the scoring system established by the Council for SAM Research. Thus, scores of 0 to 4 were given to each animal with respect to each of the following 11 items: 1: decrease in activity (searching behavior), 2: decrease in passivity (pinching escaping behavior), 3: loss of hair luster, 4: roughening of hair, 5: loss of hair, 6: skin ulcer, 7: periophthalmic lesions (blepharitis and periophthalmic erosion), 8: corneal clouding, 9: corneal ulcer, 10: cataract, 11: increased anterior or backward spinal curvature. The conditions found in a group of young mice about 3 months of age were taken as standards and given the score 0 (zero). Thus, a higher score indicates more advanced aging.
The test of Example 1 was performed in the same manner except that oxidized coenzyme Q10 was used in lieu of reduced coenzyme Q10. […]

The conditions of data set [2]: in vitro; cited from earlier work.

Turning to `COC1=C(OC)C(=O)C(C/C=C(\C)CC/C=C(\C)CC/C=C(\C)CC/C=C(\C)CC/C=C(\C)CC/C=C(\C)CC/C=C(\C)CC/C=C(\C)CC/C=C(\C)CCC=C(C)C)=C(C)C1=O` [coenzyme Q10], in the data set on rats, the toxic effect entry is listed as “no toxic effect”.
For the molecule `COC1=C(OC)C(=O)C(C/C=C(\C)CC/C=C(\C)CC/C=C(\C)CC/C=C(\C)CC/C=C(\C)CC/C=C(\C)CC/C=C(\C)CC/C=C(\C)CC/C=C(\C)CCC=C(C)C)=C(C)C1=O` [oxidized coenzyme Q10], the “aging degree score (increase)” value in data set [1] is reported as “suppressed to a certain extent”. Besides, the “aging preventing effect compared with reduced coenzyme Q10” value in data set [1] (feed, FIG. 2 vs FIG. 1) is on record as “weak”. For the same molecule, in data set [2], the antioxidant activity result was “does not show antioxidant activity”.
As for `COc1c(O)c(C)c(C/C=C(\C)CC/C=C(\C)CC/C=C(\C)CC/C=C(\C)CC/C=C(\C)CC/C=C(\C)CC/C=C(\C)CC/C=C(\C)CC/C=C(\C)CCC=C(C)C)c(O)c1OC` [reduced coenzyme Q10], the “aging degree score (increase)” value in data set [1] is listed as “distinctly prevented from increasing”. Further, in data set [2], the antioxidant activity entry is “shows antioxidant activity”.
